From US10973831B2, “Fluoropiperidine compounds as pure 5-HT 6 receptor antagonists” (SUVEN LIFE SCIENCES LIMITED, priority 2017, dated 2021)
Structures can show the parent of a compound that is named as a salt.

Assays:
[1] = target: T1, recombinant human 5-HT6 receptor (Homo sapiens, UniProt P50406); test: Determination of Kb for 5-HT6 receptor (CHO cells, pCRE-Luc reporter, cAMP); type: cell-based; settings: 10 μM serotonin, luciferase reporter
T1 construct: expressed in transfected cells
Method: Determination of Kb for 5-HT6 Receptor: A stable CHO cell line expressing recombinant human 5-HT6 receptor and pCRE-Luc reporter system was used for cell based assay. The assay offers a non-radioactive based approach to determine binding of a compound to GPCRs. In this specific assay, the level of intracellular cyclic AMP which is modulated by activation or inhibition of the receptor is measured. The recombinant cells harbor luciferase reporter gene under the control of cAMP response element. The above cells were plated in 96 well clear bottom white plates at a density of 5×10^4 cells/well using Hams F12 medium containing 10% fetal bovine serum (FBS) and incubated overnight at 37° C. and 5% CO2 followed by serum starvation for 18-20 hrs. Increasing concentrations of test compounds were added along with 10 μM serotonin in Opti-MEM to the cells. The incubation was continued at 37° C. in CO2 incubator for 4 hours. After 4 hours cells were lysed using lysis buffer and luciferase assay buffer was added to each well and counts per second were recorded using luminescence counter. From counts per second (CPS) obtained, percent binding was calculated for each well by taking 10 μM 5-HT as 100% bound and vehicle as 0% bound. The percent bound values were plotted against compound concentrations and data were analyzed using a nonlinear, iterative curve-fitting computer program of Graph pad Prism 4 software. The Kb values were calculated using concentration of the agonist used in the assay.

recombinant human 5-HT2A = target: T2, recombinant human 5-HT2A (Homo sapiens, UniProt P28223); test: Determination of 5-HT2A binding ([3H]-Ketanserin radioligand, membranes); settings: human 5-HT2A membranes, [3H]-Ketanserin 1.75 nM
T2 construct: purchased Perkin Elmer ES-313-M400UA
Method: Membrane preparation from recombinant human 5-HT2A cell line (Cat no. ES-313-M400UA) and radio ligand Ketanserin Hydrochloride, [Ethylene-^3H]-(R-41468) (Cat no. NET791250UC) were purchased from Perkin Elmer. All other reagents used in buffer preparation were purchased from Sigma. The final ligand concentration was 1.75 nM; non-specific determinant was 1-NP [10 μM] and 5-HT2A membrane protein (5 μg/well). 1-NP was used as a positive control. Reactions were carried out in 67 mM Tris pH 7.6 containing 0.5 mM EDTA buffer for 60 minutes at 25° C. Reaction was stopped by rapid filtration followed by six washes of the binding mixture using 96 well harvest plate (Millipore Cat no. MSFBNXB50) pre coated with 0.33% polyethyleneimine. The plate was dried and the bound radioactivity collected on the filters was determined by scintillation counting using MicroBeta TriLux. Radio ligand binding in the presence of non-labeled compound was expressed as a percent of the total binding and plotted against the log concentration of the compound. Ki values were determined using a nonlinear, iterative curve-fitting computer program of Graph pad Prism 4 software.

[2] = Non-clinical toxicology, repeated dose toxicity study in rat; type: in vivo; settings: rat, female rats
Method: (§1) The safety of the example 1 of instant invention and comparator example of U.S. Pat. No. 7,378,415 were evaluated in repeated dose toxicity study in rat.
(§2) Female rats were used as experimental animals for evaluating the toxicity profile of example 1 of instant invention and the comparator example of U.S. Pat. No. 7,378,415.
(§3) During the study, female rats were dosed at incremental doses for minimum of 4 days. Toxicity assessment was done on the mortality, clinical observation, change in the body weight, feed consumption, clinical and anatomical pathology. Systemic exposures were also estimated for both of the compounds. All quantitative variables are compared with control group using one-way ANOVA followed by Dunnet's post-hoc test on GraphPad Prism Software version 4, 2003.

Female rats = test: as above; type: in vivo; settings: repeated dose toxicity
Method: as §1, §2, §3

T1 sequence (P50406 whole entry): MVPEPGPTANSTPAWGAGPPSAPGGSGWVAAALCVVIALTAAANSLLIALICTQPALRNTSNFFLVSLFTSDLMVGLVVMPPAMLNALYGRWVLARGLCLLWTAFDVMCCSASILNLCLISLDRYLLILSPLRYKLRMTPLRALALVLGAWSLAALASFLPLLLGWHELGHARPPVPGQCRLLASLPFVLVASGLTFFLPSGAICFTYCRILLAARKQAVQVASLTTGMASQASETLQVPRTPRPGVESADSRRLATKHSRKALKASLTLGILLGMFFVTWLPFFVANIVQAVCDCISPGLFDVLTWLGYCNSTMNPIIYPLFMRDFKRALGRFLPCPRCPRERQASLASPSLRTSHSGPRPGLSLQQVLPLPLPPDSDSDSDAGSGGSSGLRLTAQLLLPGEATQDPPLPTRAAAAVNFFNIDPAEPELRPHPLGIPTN
T2 sequence (P28223 whole entry): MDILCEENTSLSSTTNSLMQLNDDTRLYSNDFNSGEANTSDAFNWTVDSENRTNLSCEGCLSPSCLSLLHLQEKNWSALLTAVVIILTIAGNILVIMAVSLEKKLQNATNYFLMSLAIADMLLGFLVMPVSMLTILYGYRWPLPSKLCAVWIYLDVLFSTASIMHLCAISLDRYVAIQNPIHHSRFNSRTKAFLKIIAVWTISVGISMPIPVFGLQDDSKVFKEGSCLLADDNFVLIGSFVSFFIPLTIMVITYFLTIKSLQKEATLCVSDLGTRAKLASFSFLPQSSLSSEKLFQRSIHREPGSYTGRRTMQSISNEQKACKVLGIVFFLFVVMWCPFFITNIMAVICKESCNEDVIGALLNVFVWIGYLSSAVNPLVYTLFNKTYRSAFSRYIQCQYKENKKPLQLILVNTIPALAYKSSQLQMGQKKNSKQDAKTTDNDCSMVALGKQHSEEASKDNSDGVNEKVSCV

| SMILES | Kb [1] [nM] | Ki (recombinant human 5-HT2A) [nM] | other results |
| --- | --- | --- | --- |
| O=S(=O)(c1ccccc1)c1ccc2c(c1)OCCN2C1CCNCC1F (single isomer, unassigned; peak i) [Example 2, 7-Phenylsulfonyl-4-(3-fluoropiperidin-4-yl)-3,4-dihydro-2H-benzo[1,4]oxazine hydrochloride (Peak I)] | 0.4 | 262 | – |
| O=S(=O)(c1ccccc1)c1ccc2c(c1)OCCN2C1CCNCC1F (single isomer, unassigned; peak ii) [Example 3, 7-Phenylsulfonyl-4-(3-fluoropiperidin-4-yl)-3,4-dihydro-2H-benzo[1,4]oxazine hydrochloride (Peak II)] | 0.09 | 113 | – |
| O=S(=O)(c1ccccc1)c1ccc2c(c1)N(C1CCNCC1F)CCO2 (single isomer, unassigned; peak ii) [Example 15, 6-Phenylsulfonyl-4-(3-fluoropiperidin-4-yl)-3,4-dihydro-2H-benzo[1,41]oxazine (Peak II)] | 1.25 | 1660 | – |
| O=S(=O)(c1cccc(F)c1)c1ccc2c(c1)OCCN2C1CCNCC1F (single isomer, unassigned; peak iii) [Example 7, 7-(3-Fluorophenylsulfonyl)-4-(3-fluoropiperidin-4-yl)-3,4-dihydro-2H-benzo[1,4]oxazine hydrochloride (Peak III)] | < 0.1 | 19.7 | – |
| O=S(=O)(c1ccccc1)c1ccc2c(c1)OCCN2C1CCNCC1F (single isomer, unassigned; peak iv) [Example 4, 7-Phenylsulfonyl-4-(3-fluoropiperidin-4-yl)-3,4-dihydro-2H-benzo[1,4]oxazine hydrochloride (Peak IV)] | 0.4 | 3930 | – |
| O=S(=O)(c1cccc(F)c1)c1ccc2c(c1)OCCN2C1CCNCC1F (single isomer, unassigned; peak iv) [Example 8, 7-(3-Fluorophenylsulfonyl)-4-(3-fluoropiperidin-4-yl)-3,4-dihydro-2H-benzo[1,4]oxazine hydrochloride (Peak IV)] | 19 | 804 | – |
| O=S(=O)(c1ccccc1)c1ccc2c(c1)N(C1CCNCC1F)CCO2 (single isomer, unassigned; peak iv) [Example 17, 6-Phenylsulfonyl-4-(3-fluoropiperidin-4-yl)-3,4-dihydro-2H-benzo[1,41]oxazine (Peak IV)] | 1.79 | 907 | – |
| O=S(=O)(c1ccccc1)c1ccc2c(c1)OCCN2C1CCNCC1 [Comparator Example, 7-Phenylsulfonyl-4-(piperidin-4-yl)-3,4-dihydro-2H-benzo[1,4]oxazine, reference compound] | 0.1 | 9.02 | NOAEL at 7 days ([2]; in vivo, 7-Day repeat tox): 30 mg/kg; MTD ([2]; in vivo, repeated incremental doses, read-out: Maximum Tolerated Dose): 30 mg/kg; AUC ([2]; plasma, repeated dose toxicity study, read-out: AUC (systemic exposure in toxicity study)): 4050 ng·h/mL; Cmax ([2]; plasma, repeated dose toxicity study, read-out: Cmax (systemic exposure in toxicity study)): 280 ng/mL; Findings (mortality) (Female rats; listed as Comparator example of U.S. Pat. No. 7,378,415): Mortality at ≥; Findings (mortality) (Female rats; listed as comparator example of U.S. Pat. No. 7,378,415): deaths were observed at doses >100 mg/kg on second day of dosing |
